Experimental data reported in patent US20220280543A1, “DDX17 AND NLRC4 TARGETING FOR INFLAMMATORY DISEASES” (University of Virginia Patent Foundation, priority 2019, published 2022).

Experiments:
NLRC4 [1] = assay: Alu RNA induced NLRC4 oligomers in human RPE cells, native PAGE; type: cell-based; settings: Alu RNA transfection vs mock (FIG. 24B)
Source text: FIGS. 24A and 24B. Alu RNA (SEQ ID NO: 86) induced NLRC4 activation in human RPE cells. To test whether Alu RNA (SEQ ID NO: 86) induces NLRC4 activation in human RPE, we transfected human RPE with Alu RNA (SEQ ID NO: 86 at 100 pmol). FIG. 24A. Immunofluorescence staining on NLRC4 show Alu RNA (SEQ ID NO: 86) induced cytosolic NLRC4 punctate in hRPE cells. The NLRC4 aggregates induced by Alu RNA (SEQ ID NO: 86) are indicated by white arrows. FIG. 24B. Alu RNA (SEQ ID NO: 86) induced NLRC4 (p-NLRC4) phosphorylation and oligomerization. Loading control show by Actin. NLRC4 oligomers were detected by Tris-glycine native PAGE. […] The band of NLRC4 oligomers is indicated by black arrow.
Next, we asked whether Alu RNA (SEQ ID NO: 86) also triggered NLRC4 inflammasome activation in human RPE cells. We performed immunofluorescence staining experiments to examine whether Alu RNA (SEQ ID NO: 86) can induce NLRC4 speck formation in human RPE cells. We noticed punctate structures resembling specks of NLRC4 in human RPE cells in response to Alu RNA (SEQ ID NO: 86) treatment (FIG. 24A). […] We further investigated downstream events of NLRC4 inflammasome activation by studying NLRC4-induced ASC oligomerization, a critical step involved in caspase-1 cleavage. NLRC4 siRNA, when co-administered with Alu RNA (SEQ ID NO: 86), blocked ASC oligomerization in vitro (FIG. 25A) and RPE degeneration in vivo (FIG. 25B).

caspase-1 = assay: Alu RNA induced cleavage of caspase-1 precursor in BMDM; type: cell-based, mouse; settings: Alu RNA transfection (FIG. 2)
Description: FIG. 2. SINE RNA induced NLRC4 phosphorylation (site S533) through protein Kinase C Delta. BMDM cell pre-treated with the LRRK2 Kinase inhibitor gsk2578215a (GSK; 5-(2-Fluoro-4-pyridinyl)-2-(phenylmethoxy)-N-3-pyridinyl-benzamide; CAS Number 1285515-21-0; Sigma-Aldrich, St. Louis, Mo., United States of America) or the PKC delta inhibitor Rottlerin (CAS Number 82-08-6; Sigma-Aldrich) at 2 μM or 5 μM, and treated with Alu RNA (SEQ ID NO: 86) transfection or transfection reagent alone (Mock). NLRC4 phosphorylation (P-NLRC4) and supernatant caspase-1 activation were detected by SDS-PAGE. […] PKC delta inhibitor, Rottlerin blocked Alu RNA-induced NLRC4 phosphorylation and caspase-1 activation. The p-NLRC4 and caspase-1 (p20) bands were indicated with black arrows.

DDX17 = DDX17 (Homo sapiens, UniProt Q92841); assay: CLIP (cross-linking immunoprecipitation) of biotin-Alu RNA and DDX17 in HEK293 cells; type: binding; set-up: Myc; expressed in transfected cells; host or cells: HEK293; settings: UV cross-linking, streptavidin pull down (FIG. 8B)
Source text: FIGS. 8A-8C. CLIP (cross-linking immunoprecipitation) on Alu RNA (SEQ ID NO: 86) and Ddx17 interaction. Human HEK293 cell transfected with btn-Alu RNA (SEQ ID NO: 86), cross-linked by ultraviolet light, pull-downed by biotin-streptavidin. The binding of Ddx17 determined by western blot. FIG. 8A. Schematic of CLIP (cross-linking immunoprecipitation) for biotin or myc-tag mediated immunoprecipitation. FIG. 8B. […] WCL is whole cell lysates. The bands of pull downed DDX17 proteins by Alu RNA (SEQ ID NO: 86) were indicated by black arrow. FIG. 8C. The HEK293 cells were transfected with myc-tagged DDX17 and biotin-Alu RNA (SEQ ID NO: 86). Cells were cross-linked and lysates for immunoprecipitation by Anti-myc beads. The total RNA was extracted, and were the Alu RNA (SEQ ID NO: 86) were detected with Northern blot. […] The bands of pull-downed Alu RNA (SEQ ID NO: 86) by myc-DDX17 proteins were indicated by black arrow.
Next, we sought to identify the sensor responsible for Alu RNA (SEQ ID NO: 86) induced NLRC4 inflammasome activation. We employed cross-linking immunoprecipitation (CLIP)-mass spectrometry to reveal protein interaction partners of Alu RNA (SEQ ID NO: 86). […] Immunoprecipitation of the cell lysate with anti-Streptavidin (FIG. 8B) or Myc antibody (FIG. 8C) pulled down biotin-labelled Alu RNA (SEQ ID NO: 86), as detected by northern blotting. […]

NLRC4 [2] = assay: Alu RNA induced NLRC4 protein oligomerization in BMDM, Tris-glycine native PAGE; type: cell-based, mouse; settings: Alu RNA 100 pmol, indicated time points (FIG. 4)
Description: FIG. 4. Alu RNA (SEQ ID NO: 86) induced NLRC4 protein oligomerization. Mouse BMDM was treated with Alu RNA (SEQ ID NO: 86; 100 pmol) at the indicated time points. NLRC4 oligomers were detected by Tris-glycine native PAGE. Loading control show by Actin. […] The bands of oligomeric NLRC4 protein were indicated by black arrow.
The activated NLRC4 inflammasome undergoes oligomerization by assembling into high-molecular mass multiprotein complexes. We first investigated in situ assembling of NLRC4 and apoptosis speck (ASC) like protein complexes in response to SINE RNA treatment of BMDMs. Immunofluorescence studies show increased NLRC4 and ASC specks in SINE RNA-treated BMDMs compared to mock-treated cells (FIG. 3A). To assess NLRC4 inflammasome assembly, WT and NLRC4 KO BMDM cells were treated with Alu RNA (SEQ ID NO: 86). Disuccinimidyl suberate (DSS) cross-linked lysates were resolved using denaturing SDS-PAGE to detect ASC oligomers and cell lysates were resolved using native polyacrylamide gel electrophoresis (NATIVE-PAGE) to detect NLRC4 oligomerization. […] NLRC4/ASC oligomerization is essential for the cleavage of pro-caspase-1 into its active form p20 and IL-1β release.

Sequence of DDX17 (Q92841 whole entry, species assumed): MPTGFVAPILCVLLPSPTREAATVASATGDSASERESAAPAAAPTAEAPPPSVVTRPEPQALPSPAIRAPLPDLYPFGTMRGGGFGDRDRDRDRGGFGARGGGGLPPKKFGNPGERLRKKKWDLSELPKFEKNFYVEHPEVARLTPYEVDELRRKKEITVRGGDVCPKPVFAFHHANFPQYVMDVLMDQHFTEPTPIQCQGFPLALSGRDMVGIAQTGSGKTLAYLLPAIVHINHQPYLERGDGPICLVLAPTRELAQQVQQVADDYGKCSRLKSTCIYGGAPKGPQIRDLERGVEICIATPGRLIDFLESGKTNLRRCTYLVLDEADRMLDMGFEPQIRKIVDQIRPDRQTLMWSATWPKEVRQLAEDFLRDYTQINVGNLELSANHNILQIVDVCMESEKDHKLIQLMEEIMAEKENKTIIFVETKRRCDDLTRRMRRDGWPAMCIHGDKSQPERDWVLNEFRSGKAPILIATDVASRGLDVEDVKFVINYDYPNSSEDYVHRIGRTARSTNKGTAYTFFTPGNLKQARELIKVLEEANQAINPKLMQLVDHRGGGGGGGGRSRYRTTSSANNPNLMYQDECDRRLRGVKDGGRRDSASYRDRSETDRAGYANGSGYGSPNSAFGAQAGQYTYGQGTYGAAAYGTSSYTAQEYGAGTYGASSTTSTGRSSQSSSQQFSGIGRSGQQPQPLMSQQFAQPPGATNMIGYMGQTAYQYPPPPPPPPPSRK

Substance: Alu RNA: human SINE RNA, SEQ ID NO: 86
- formation of NLRC4 oligomers, human RPE cells (NLRC4 [1]): induced the formation of NLRC4 oligomers
- cleavage of caspase-1 precursor (pro) to p20 (caspase-1): induced
- binding of DDX17 to biotin-Alu RNA (DDX17): physically binds
- formation of NLRC4 oligomers, BMDM (NLRC4 [2]): induces the formation of NLRC4 oligomers
